≈ marks a conversion by molar mass, not a printed value.
How the values were obtained:
Human KCNQ2/3 channel = molecular target: T1, Human KCNQ2/3 channel (Homo sapiens, UniProt O43525+O43526); test: Opening action with respect to KCNQ2/3 channel by depolarization stimulation (thallium influx, FLIPR); assay type: cell-based; details: concentration giving 50% of the maximum reaction of retigabine (10 μM); human KCNQ2/3 expressing CHO-DHFR- cells; read-out: KCNQ2/3 ECrtg50
T1 construct: expressed in transfected cells; host or cells: CHO-DHFR- cells
Experimental: Human KCNQ2/3 expression cells (CHO-DHFR− cells) were seeded in each well of a 384-well plate (collagen-coated, black, clear bottom) at 0.5×10^4 cells/50 μL per well and cultured using a MEM ALPHA medium (containing 10 vol % inactivated (56° C., 30 min) fetal bovine serum, 100 IU/mL penicillin, 100 μg/mL streptomycin, and 2 mM L-glutamine) at 37° C. in 5% CO2 for 18 to 24 hours. After the medium in the plate was removed, incubation (room temperature, 60 minutes, shading) was performed in a loading buffer (prepared by the method described in the manual of FluxOR Thallium Detection Kit (Invitrogen, F10016, F10017)). A KCNQ2/3 channel opening action (thallium influx into cells) by depolarization stimulation (5 mM potassium and 0.5 mM thallium) was measured by FLIPR TETRA (Molecular Devices). The compound of the present invention was treated 5 minutes before the depolarization stimulation, and the reaction induced by the depolarization stimulation was measured over time for 180 seconds. The channel opening action of the compound of the present invention was evaluated based on the change amount of the fluorescence intensity from the time before the depolarization stimulation to the time after the elapse of 180 seconds, and the concentration (ECrtg50) satisfying 50% of the fluorescence intensity change of a maximum reaction (in the treatment at 10 μM) of retigabine under the conditions of this experiment was calculated.

hERG IKr current = molecular target: T2, hERG IKr current (Homo sapiens, UniProt Q12809); test: Action on hERG IKr current (patch-clamp, HEK293 cells overexpressing hERG); assay type: cell-based; details: maximum tail current, 10 minutes after application, read-out: 50% hERG channel inhibitory activity
T2 construct: expressed in transfected cells; host or cells: HEK293 cells
Experimental: By using HEK293 cells overexpressing a human ether-a-go-go-related gene (hERG), the maximum tail current of the hERG IKr current induced by redepolarization pulse subsequent to depolarization pulse was measured by a patch-clamp method, and the percent change (suppression ratio) after 10 minutes from application of a test substance with respect to the maximum tail current before the application of the test substance was calculated (see, Biophysical Journal, vol. 74, pp. 230-241 (1998)).

[1] = Stability in human liver microsomes; assay type: in vitro ADME; details: human liver microsomes 0.5 mg/mL, NADPH, 5 μM, 37° C., 15 minutes
Experimental: A test compound (a 10 mM DMSO solution, 5 μL) was diluted with a 50% aqueous acetonitrile solution (195 μL), whereby a 0.25 mM solution was prepared.
To a reaction vessel preheated to 37° C., 0.5 mg/mL of human liver microsomes (XenoTech, LLC) and 245 JLL of a 0.1 M phosphate buffer solution (pH 7.4) containing NADPH co-factor (BD Biosciences) were added, followed by preincubation for 5 minutes, and thereafter, the above-prepared test compound solution (5 μL) was added thereto to start a reaction (final concentration: 5 μM). Immediately after the start, a 20 μL portion was collected and added to 180 μL of acetonitrile containing an internal standard substance (warfarin) to stop the reaction. A 20 μL portion of this solution was stirred with 180 μL of a 50% aqueous acetonitrile solution on a plate equipped with a deproteinization filter, followed by suction filtration, and the filtrate was used as a standard sample.
After the above-prepared reaction solution was incubated at 37° C. for 15 minutes, a 20 μL portion of the solution was added to 180 μL of cooled acetonitrile (containing warfarin serving as an internal standard substance) to stop the reaction. A 20 μL portion of this solution was stirred with 180 μL of a 50% aqueous acetonitrile solution on a plate equipped with a deproteinization filter, followed by suction filtration, and the filtrate was used as a reaction sample.
A residual ratio (%) was calculated as follows. 1 μL of the sample solution was injected into LC-MS/MS (Discovery Max, manufactured by Thermo Scientific, Inc.), and a value obtained by dividing the peak area ratio of the reaction sample (peak area of test compound/peak area of internal standard substance) by the peak area ratio of the standard sample was multiplied by 100.

[2] = Solubility test (DMSO precipitation method, Japanese Pharmacopoeia dissolution test second solution); assay type: physicochemical; details: aqueous buffer, kinetic from dmso stock, JP dissolution test second solution pH 6.8, room temperature, quantification range 5 to 100 μM
Experimental: A calibration curve solution was prepared at 0.1, 0.4, and 2 μM by diluting a test substance (a 10 mM DMSO solution) with acetonitrile and adding acetonitrile containing an internal standard substance (candesartan).
A sample solution was prepared as follows. 5 μL of the compound of the present invention (a 10 mM DMSO solution) was added to 495 μL of the Japanese Pharmacopoeia dissolution test second solution (pH: 6.8), followed by stirring at room temperature for 5 hours. Then, the solution was transferred to a solubility filter plate and subjected to suction filtration. The filtrate (20 μL) was diluted with acetonitrile, followed by adding acetonitrile containing an internal standard substance (candesartan).
Each of the calibration curve and sample solutions (5 μL) was injected into LC-MS/MS (Discovery Max, manufactured by Thermo Scientific, Inc.) and subjected to quantification (quantification range: 5 to 100 μM). The solubility in the case where the value equal to or less than the quantification range was obtained was defined as <5 μM, and the solubility in the case where the value equal to or more than the quantification range was obtained was defined as […].

[3] = tested on: bladder extracted from rat; test: Relaxing action on bladder extracted from rat (carbachol-induced contraction, Magnus tube); details: rat bladder strip, carbachol 1 μM contraction; read-out: IC20 (percent change in tension -20%)
Experimental: Female Jcl:Wistar rats (CLEA Japan, Inc., body weight at use: 170 to 200 g) were anesthetized by intraperitoneal administration of about 40 mg/kg of pentobarbital (Somnopentyl, Schering Plough Animal Health Corporation), and killed by bloodletting. The bladder was extracted by abdominal incision and immediately thereafter immersed in ice-cooled Krebs buffer (Krebs Ringer bicarbonate buffer (Sigma-Aldrich Co. LLC) supplemented with sodium hydrogen carbonate (final concentration: 15 mM) and calcium chloride (final concentration: 2.5 mM)) saturated with a mixed gas (95% O2, 5% CO2).
The bladder body extracted from each rat was cut into an oblong strip shape (about 10×3 mm), whereby a specimen was prepared on ice. Immediately thereafter, the specimen was suspended in a Magnus tube filled with Krebs buffer (37° C.) bubbled with the mixed gas while applying a tension load of 500 mg thereto. Incidentally, the specimen was prepared within 24 hours after extracting the tissue.
After the elapse of one hour or more from the suspension of the specimen, 2.5 M KCl was added thereto to a final concentration of 100 mM, and the specimen in which a contraction reaction could be confirmed was used.
Carbachol (a contraction inducer) contraction was induced at a concentration of 1 μM. […] After the contraction reaction was stabilized, physiological saline or the compound of the present invention was added thereto to a final concentration of 1 nM, 10 nM, 100 nM, 1 μM, and […] in a cumulative manner from a low concentration.
The tension (mg) in the extracted bladder was used as an evaluation item. The tension was read using analysis software WAVE THERMO 1000. A percent change in tension after adding the compound of the present invention when the tension after adding the contraction inducer was taken as 0% was defined as a percent change in tension (%) and used as an evaluation index. The percent change in tension (%) is calculated according to the following formula. percent change in tension (%)={tension (mg) after adding compound of the present invention and the like−tension (mg) before adding contraction inducer}/{tension (mg) after adding contraction inducer−tension (mg) before adding contraction inducer}×100−100
The value at which the percent change in tension (%) was −20% was calculated as IC20 and used as an index of the relaxing action on the extracted bladder.

T2 sequence (Q12809 whole entry): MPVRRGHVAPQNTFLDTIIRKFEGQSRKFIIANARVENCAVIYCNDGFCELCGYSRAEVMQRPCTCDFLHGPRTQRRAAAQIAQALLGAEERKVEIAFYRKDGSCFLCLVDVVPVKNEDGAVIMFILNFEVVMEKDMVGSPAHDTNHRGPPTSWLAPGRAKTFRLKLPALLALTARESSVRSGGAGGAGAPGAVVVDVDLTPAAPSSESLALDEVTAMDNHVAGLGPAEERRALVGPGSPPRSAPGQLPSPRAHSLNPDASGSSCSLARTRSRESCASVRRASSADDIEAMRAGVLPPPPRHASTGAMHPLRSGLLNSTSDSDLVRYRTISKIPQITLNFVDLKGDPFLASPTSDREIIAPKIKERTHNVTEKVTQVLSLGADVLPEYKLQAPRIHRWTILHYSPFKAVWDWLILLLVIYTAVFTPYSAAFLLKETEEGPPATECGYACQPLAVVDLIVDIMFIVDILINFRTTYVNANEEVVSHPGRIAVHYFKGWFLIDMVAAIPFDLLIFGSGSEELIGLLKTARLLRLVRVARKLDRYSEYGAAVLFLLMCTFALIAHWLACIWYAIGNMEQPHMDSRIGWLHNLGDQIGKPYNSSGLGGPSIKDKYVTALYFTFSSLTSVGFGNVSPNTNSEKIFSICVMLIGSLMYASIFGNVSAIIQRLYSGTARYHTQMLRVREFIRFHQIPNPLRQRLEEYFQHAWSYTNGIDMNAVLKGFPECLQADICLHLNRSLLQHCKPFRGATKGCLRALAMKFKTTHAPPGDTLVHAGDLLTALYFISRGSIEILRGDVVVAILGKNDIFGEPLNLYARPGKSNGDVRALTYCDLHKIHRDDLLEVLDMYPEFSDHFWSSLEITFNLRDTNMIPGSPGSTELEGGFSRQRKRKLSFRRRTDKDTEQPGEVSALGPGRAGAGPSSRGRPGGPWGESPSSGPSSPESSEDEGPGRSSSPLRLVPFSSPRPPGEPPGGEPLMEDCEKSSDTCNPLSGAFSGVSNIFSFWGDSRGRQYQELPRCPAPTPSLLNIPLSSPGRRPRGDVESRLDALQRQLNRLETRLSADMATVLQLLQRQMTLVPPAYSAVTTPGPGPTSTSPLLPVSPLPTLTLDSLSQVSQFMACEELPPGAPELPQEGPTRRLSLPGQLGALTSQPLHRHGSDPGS

| EC50 (Human KCNQ2/3 channel) | Residual ratio [1] | solubility at 5 h [2] | SMILES | IC50 (hERG IKr current) | IC20 [3] |
| --- | --- | --- | --- | --- | --- |
| 0.3 µM | 98% |  | CC1(O)CCc2c1cc(Cl)c(NC(=O)NCc1ccc(C(F)(F)F)cn1)c2Cl (single isomer, unassigned) [Example 4(4), 1-(4,6-dichloro-1-hydroxy-1-methyl-2,3-dihydro-1H-inden-5-yl)-3-{[5-(trifluoromethyl)-2-pyridinyl]methyl}urea] | > 10 µM |  |
| 0.002 µM | 77% | 87 µM (≈ 42.5 µg/mL) | O=C(NCc1ccc(C(F)(F)F)cn1)Nc1c(Cl)cc2c(c1Cl)CCC2(O)C(F)(F)F (stereo not shown) [Example 12(4), 1-[4,6-dichloro-1-hydroxy-1-(trifluoromethyl)-2,3-dihydro-1H-inden-5-yl]-3-{[5-(trifluoromethyl)-2 pyridinyl]methyl}urea] |  | 0.01 µM |

Second part, the molecule before the results:

| SMILES | EC50 (Human KCNQ2/3 channel) | Residual ratio [1] | solubility at 5 h [2] | IC50 (hERG IKr current) | IC20 [3] |
| --- | --- | --- | --- | --- | --- |
| C[C@@H](NC(=O)Nc1c(Cl)cc2c(c1Cl)CCC2(O)C(F)(F)F)c1ccc(F)cc1 (stereo partly drawn) [Example 12(5), 1-[4,6-dichloro-1-hydroxy-1-(trifluoromethyl)-2,3-dihydro-H-inden-5-yl]-3-[(1R)-1-(4-fluorophenyl)ethyl]urea] |  |  |  | > 10 µM | 0.03 µM |
| O=C(NCc1ccc(F)cc1)Nc1c(Cl)cc2c(c1Cl)CCC2(O)C(F)(F)F (stereo not shown) [Example 12, 1-[4,6-dichloro-1-hydroxy-1-(trifluoromethyl)-2,3-dihydro-1H-inden-5-yl]-3-(4-fluorobenzyl)urea] | 0.005 µM | 94% | 82 µM (≈ 35.9 µg/mL) | > 10 µM | 0.01 µM |
| CC1(O)c2cc(Cl)c(NC(=O)NCc3ccc(F)cc3)c(Cl)c2CC1(F)F (stereo not shown) [Example 42, 1-(4,6-dichloro-2,2-difluoro-1-hydroxy-1-methyl-2,3-dihydro-1H-inden-5-yl)-3-(4-fluorobenzyl)urea] | 0.2 µM | 90% | 87 µM (≈ 36.5 µg/mL) | > 10 µM | 0.1 µM |

Reference: patent publication US10519105B2, “KCNQ2-5 channel activator” (ONO PHARMACEUTICAL CO., LTD., priority 2016, dated 2019)
